From publication PMC7403980, “Anti-Inflammatory Effects of the Novel PIM Kinase Inhibitor KMU-470 in RAW 264.7 Cells through the TLR4-NF-κB-NLRP3 Pathway” (International Journal of Molecular Sciences, 2020)

Legend:
PIM-1 = biological target: T1, PIM-1 (Homo sapiens, UniProt P11309); assay: PIM kinase IMAP fluorescence polarization IC50 determination; format: biochemical; conditions: ATP 30 μM; average of two independent experiments; read-out: Inhibitory Activity IC50 PIM-1
T1 construct: purchased Life Technologies (Carlsbad, CA, USA)
T1 sequence (P11309 whole entry, species assumed): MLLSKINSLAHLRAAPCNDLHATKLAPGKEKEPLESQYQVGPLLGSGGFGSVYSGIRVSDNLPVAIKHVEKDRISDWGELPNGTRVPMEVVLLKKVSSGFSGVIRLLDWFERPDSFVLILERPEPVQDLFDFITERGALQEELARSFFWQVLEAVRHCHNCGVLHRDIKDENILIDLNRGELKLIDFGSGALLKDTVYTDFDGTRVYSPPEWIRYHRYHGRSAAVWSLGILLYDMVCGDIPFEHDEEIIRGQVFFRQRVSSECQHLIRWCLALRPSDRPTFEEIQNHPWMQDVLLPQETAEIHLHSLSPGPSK
Method: (§1) The recombinant PIM kinase, human 5-FAM-labelled Bad peptide substrate, and ATP were prepared in a reaction buffer containing 10 mM HEPES (pH 7.2), 10 mM MgCl2, 0.05% NaN3, 0.01% Triton X-100, and 2 mM DTT. […] Reagents were added to the plate as follows: 2.5 μL compound, 2.5 μL PIM kinase, 2.5 μL ATP, and 2.5 μL 5-FAM-labelled Bad peptide substrate (a final concentration of 100 nM). The final concentrations of ATP in the kinase reactions were 30 μM, 5 μM, and 20 μM for PIM1, PIM2, and PIM3, respectively. […] Kinase reactions were incubated at room temperature for 90 min, and then the reactions were stopped by the addition of 20 μL of IMAP binding reagent (solution containing 75% Buffer A: 25% Buffer B, and a 1 in 600 dilution of beads). After quenching, the plates were incubated at room temperature for 2 h, and then the fluorescence polarization measurements were carried out on an Infinity F200 (Tecan, Männedorf, Zürich, Switzerland). The percentage of inhibition was calculated for each compound concentration and the data were fitted to the equation of a 4-parameter logistic curve. IC50 values were obtained using GraphPad Prism (GraphPad Software, Inc., La Jolla, CA, USA).

PIM-2 = biological target: T2, PIM-2 (Homo sapiens, UniProt Q9P1W9); assay: as above; format: biochemical; conditions: ATP 5 μM; average of two independent experiments; read-out: Inhibitory Activity IC50 PIM-2
T2 construct: purchased Abcam (Cambridge, UK)
T2 sequence (Q9P1W9 whole entry, species assumed): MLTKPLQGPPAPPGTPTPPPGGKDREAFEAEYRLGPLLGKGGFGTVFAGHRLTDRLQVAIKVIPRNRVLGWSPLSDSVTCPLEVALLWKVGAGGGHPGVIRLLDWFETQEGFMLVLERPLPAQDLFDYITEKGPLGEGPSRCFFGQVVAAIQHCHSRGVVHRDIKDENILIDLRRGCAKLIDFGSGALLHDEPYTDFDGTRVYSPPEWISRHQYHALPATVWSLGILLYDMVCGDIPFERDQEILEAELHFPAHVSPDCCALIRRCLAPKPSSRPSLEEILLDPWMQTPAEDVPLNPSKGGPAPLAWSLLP
Method: as §1

PIM-3 = biological target: T3, PIM-3 (Homo sapiens, UniProt Q86V86); assay: as above; format: biochemical; conditions: ATP 20 μM; average of two independent experiments; read-out: Inhibitory Activity IC50 PIM-3
T3 construct: purchased Millipore (Burlington, MA, USA)
Method: as §1

JNK = assay: LPS-induced phosphorylation of JNK in RAW 264.7 cells (Western blot); format: cell-based, murine; conditions: KMU-470 1 μM 24 h pre-treatment, LPS 50 ng/mL
Method: (§2) Figure 5 Effect of KMU-470 on LPS-induced phosphorylation of MAPKs/ IKKs/ NF-κB in RAW 264.7 cells. (A) Cells were pre-treated with 1μM of KMU-470 for 24 h and stimulated with LPS (50 ng/mL) at the indicated times. (C) Cells were pre-treated with 0.5 and 1μM of KMU-470 for 30 min prior to LPS treatment. Total proteins were isolated after 6 h exposure to LPS (50 ng/mL). The protein expression level of MAPKs, p-IKKα/β, and p-NF-κB were assessed using Western blot analyses. (B,D) The relative optical densities of MAPKs, p-IKKα/β, and p-NF-κB bands were analyzed by the Image-J program. *** p < 0.001.
(§3) RAW 264.7 cells were pre-treated with KMU-470 (0.5–1 μM/mL) for 24 h and stimulated with LPS (50 ng/mL) for 6 h. After stimulation, total cells were harvested, washed with PBS buffer, and then the total protein was extracted with a RIPA buffer (0.1 mM sodium orthovanadate, 137 mM NaCl, 15 mM EGTA, 0.1% Triton X-100, 25 mM MOPS, 15 mM MgCl2, 100 μM phenylmethylsulfonyl fluoride, and 20 μM leupeptin, adjusted to pH 7.2). […] Immunoreactive proteins were detected using the ELC Western blot detection system kit (Millipore). Signal intensity was measured using the Chemi Image documentation system (Fusion Fx7, VILBER LOUTMAT). Protein expression levels were quantified using the Image J program.

ERK = assay: LPS-induced phosphorylation of ERK in RAW 264.7 cells (Western blot); format: cell-based, murine; conditions: KMU-470 1 μM 24 h pre-treatment, LPS 50 ng/mL
Method: as §2, §3

p38 = assay: LPS-induced phosphorylation of p38 in RAW 264.7 cells (Western blot); format: cell-based, murine; conditions: KMU-470 1 μM 24 h pre-treatment, LPS 50 ng/mL
Method: as §2, §3

pro-IL-1β = assay: LPS-induced pro-IL-1β protein expression in RAW 264.7 cells (Western blot); format: cell-based, murine; conditions: KMU-470 0.1, 0.5, 1 μM 30 min, LPS 50 ng/mL 6 h
Method: Figure 2 Effect of PIM inhibition on lipopolysaccharide (LPS)-mediated inflammatory response in RAW 264.7 cells. (A) RAW 264.7 cells transfected with negative siRNA or PIM-1 siRNA for 72 h and then treated with LPS (50 ng/mL) for 6 h. Whole cell lysates were isolated and used to measure the protein expression levels of PIM-1, pro-IL-1β, p-Bad, and β-actin by Western blot analysis. […] Total RNA was isolated, and used to measure the mRNA expression levels of IL-1b and β-actin by RT-PCR analysis. *** p < 0.001, ** p < 0.01.
Figure 6 Inhibitory effect of KMU-470 on LPS-induced up-regulation of pro-inflammatory cytokines and activation of NLRP3 inflammasome in RAW 264.7 cells. (A–C) Cells were treated with KMU-470 for 30 min and stimulated with LPS 50 ng/mL for 6 h. The levels of IL-1β, TNF-α, and IL-6 were determined using real time PCR. *** p < 0.001, *p < 0.05. (D) Cells were pre-treated with 0.1, 0.5, and 1 μM of KMU-470 for 30 min and treated with LPS 50 ng/mL for 6 h, respectively. […]
RAW 264.7 cells were pre-treated with KMU-470 (0.5–1 μM/mL) for 24 h and stimulated with LPS (50 ng/mL) for 6 h. […] Immunoreactive proteins were detected using the ELC Western blot detection system kit (Millipore). Signal intensity was measured using the Chemi Image documentation system (Fusion Fx7, VILBER LOUTMAT). Protein expression levels were quantified using the Image J program. […]

pro-caspase-1 = assay: Pro-caspase-1 protein expression in LPS-treated RAW 264.7 cells (Western blot); format: cell-based, murine; conditions: KMU-470 0.1, 0.5, 1 μM 30 min, LPS 50 ng/mL 6 h
Method: Figure 6 Inhibitory effect of KMU-470 on LPS-induced up-regulation of pro-inflammatory cytokines and activation of NLRP3 inflammasome in RAW 264.7 cells. (A–C) Cells were treated with KMU-470 for 30 min and stimulated with LPS 50 ng/mL for 6 h. The levels of IL-1β, TNF-α, and IL-6 were determined using real time PCR. *** p < 0.001, *p < 0.05. (D) Cells were pre-treated with 0.1, 0.5, and 1 μM of KMU-470 for 30 min and treated with LPS 50 ng/mL for 6 h, respectively. Whole cell lysates were isolated and used to measure the protein expression levels of pro-IL-1β and β-actin by Western blot analysis. (E) Cells were pre-treated with 0.1, 0.5, and 1 μM of KMU-470 for 30 min and treated with LPS 50 ng/mL for 6 h, respectively. Whole cell lysates were isolated and used to measure the protein expression levels of […], ASC, pro-caspase-1, pro-IL-1β, and β-actin by Western blot analysis.
RAW 264.7 cells were pre-treated with KMU-470 (0.5–1 μM/mL) for 24 h and stimulated with LPS (50 ng/mL) for 6 h. […] Immunoreactive proteins were detected using the ELC Western blot detection system kit (Millipore). Signal intensity was measured using the Chemi Image documentation system (Fusion Fx7, VILBER LOUTMAT). Protein expression levels were quantified using the Image J program.

SMILES: CN(C)CCNc1cncc(-c2ccc3c(c2)/C(=C/c2cnc[nH]2)C(=O)N3)n1 [KMU-470, (Z)-3-((1H-Imidazol-5-yl)methylene)-5-(6-((2-(dimethylamino)ethyl)amino)pyrazin-2-yl)indolin-2-one]
- IC50 (PIM-1): 5.6 nM
- IC50 (PIM-2): 220 nM
- IC50 (PIM-3): 6.9 nM
- LPS-induced phosphorylation of JNK (JNK): significantly inhibited
- LPS-induced phosphorylation of ERK (ERK): significantly inhibited
- p38 phosphorylation level (p38): no change
- LPS-induced up-regulation of IL-1β protein (pro-IL-1β; RAW 264.7 cells (Figure 6D)): reduced
- Expression of pro-IL-1β protein compared with LPS alone group (pro-IL-1β; RAW 264.7 cells (Figure 6E)): marked decrease
- Pro-caspase-1 expression (pro-caspase-1): not changed
